From ChEMBL document CHEMBL3885861, “Open TG-GATES”

Species on record: Rattus norvegicus
Experiment: Open TG-GATES - Regimen: Single
Type: toxicity, organism-based, Sprague-Dawley
Set-up: regimen Single, gender Male, age 6 weeks
Conditions: in vivo, po, 0 mg/kg, route gavage, dose level Control; for APTT / Bas / Eos / Fbg / Hb / Ht / Lym / MCH / MCHC / MCV / Mono / Neu / PT / Plat / RBC / Ret / WBC: tissue Blood; for KIDNEY_L / KIDNEY_R / KIDNEY_TOTAL: tissue Kidney; for LIVER: tissue Liver; for A/G / ALP / ALT / AST / BUN / CRE / Ca / Cl / DBIL / GLC / IP / K / LDH / Na / PL / RALB / TBIL / TC / TG / TP / gamma-GTP: tissue Plasma

Compound `Nc1c2c(nc3ccccc13)CCCC2` [TACRINE] has a TERMINAL_BW (3 h) of 206.5 g, an APTT (3 h) of 19.7 s and a Bas (3 h) of 0%. The Eos (3 h) was 0.8%, the Fbg (3 h) was 293.2 mg/dL and the Hb (3 h) was 13 g/dL. It also gave a Ht (3 h) of 37.9%, a Lym (3 h) of 81.6% and an MCH (3 h) of 21.2 pg. The MCHC (3 h) was 34.2%, the MCV (3 h) was 61.7 fL and the Mono (3 h) was 2%. For the same compound, the Neu (3 h) was 15%, the PT (3 h) was 16.3 s and the Plat (3 h) was 114.9 x10_4/uL. It also gave an RBC (3 h) of 614.4 x10_4/ul, a Ret (3 h) of 7.9% and a WBC (3 h) of 97 x10_2/uL. For the same compound, the KIDNEY_L (3 h) was 0.9 g, the KIDNEY_R (3 h) was 0.9 g and the KIDNEY_TOTAL (3 h) was 1.8 g. It also gave an LIVER (3 h) of 9.3 g, an A/G (3 h) of 1.2 and an ALP (3 h) of 1417 IU/L. It also gave an ALT (3 h) of 39.6 IU/L, an AST (3 h) of 77.8 IU/L and a BUN (3 h) of 13 mg/dL. The CRE (3 h) was 0.2 mg/dL, the Ca (3 h) was 10.6 mg/dL and the Cl (3 h) was 106.8 meq/L. The DBIL (3 h) was 0.002 mg/dL, the GLC (3 h) was 189.6 mg/dL and the IP (3 h) was 7.9 mg/dL. The K (3 h) was 3.9 meq/L, the LDH (3 h) was 229 IU/L and the Na (3 h) was 142.6 meq/L. For the same compound, the PL (3 h) was 131.4 mg/dL, the RALB (3 h) was 3 g/dL and the TBIL (3 h) was 0.018 mg/dL. It also gave a TC (3 h) of 73.2 mg/dL, a TG (3 h) of 60 mg/dL and a TP (3 h) of 5.4 g/dL. The gamma-GTP (3 h) was 1.2 IU/L, the TERMINAL_BW (6 h) was 208.7 g and the APTT (6 h) was 21.4 s. It also gave a Bas (6 h) of 0%, an Eos (6 h) of 0.8% and a Fbg (6 h) of 310.4 mg/dL. The Hb (6 h) was 13.3 g/dL, the Ht (6 h) was 38.6% and the Lym (6 h) was 80.2%. The MCH (6 h) was 21.1 pg, the MCHC (6 h) was 34.5% and the MCV (6 h) was 61.1 fL. It also gave a Mono (6 h) of 2.6%, a Neu (6 h) of 16% and a PT (6 h) of 16.1 s. The Plat (6 h) was 115.4 x10_4/uL, the RBC (6 h) was 632.2 x10_4/ul and the Ret (6 h) was 7.7%. The WBC (6 h) was 96.6 x10_2/uL, the KIDNEY_L (6 h) was 0.9 g and the KIDNEY_R (6 h) was 0.9 g. The KIDNEY_TOTAL (6 h) was 1.9 g, the LIVER (6 h) was 9 g and the A/G (6 h) was 1.2. It also gave an ALP (6 h) of 1333 IU/L, an ALT (6 h) of 38.4 IU/L and an AST (6 h) of 74.6 IU/L. For the same compound, the BUN (6 h) was 10.8 mg/dL, the CRE (6 h) was 0.2 mg/dL and the Ca (6 h) was 10.6 mg/dL. For the same compound, the Cl (6 h) was 106.8 meq/L, the DBIL (6 h) was 0 mg/dL and the GLC (6 h) was 176.6 mg/dL. It also gave an IP (6 h) of 9.2 mg/dL, a K (6 h) of 4.6 meq/L and an LDH (6 h) of 252.4 IU/L. The Na (6 h) was 142 meq/L, the PL (6 h) was 137.4 mg/dL and the RALB (6 h) was 2.9 g/dL. For the same compound, the TBIL (6 h) was 0.016 mg/dL, the TC (6 h) was 79.4 mg/dL and the TG (6 h) was 82 mg/dL. The TP (6 h) was 5.4 g/dL, the gamma-GTP (6 h) was 1.2 IU/L and the TERMINAL_BW (9 h) was 205.8 g. For the same compound, the APTT (9 h) was 19.8 s, the Bas (9 h) was 0% and the Eos (9 h) was 1%. The Fbg (9 h) was 285.8 mg/dL, the Hb (9 h) was 13.2 g/dL and the Ht (9 h) was 38.4%. For the same compound, the Lym (9 h) was 81.6%, the MCH (9 h) was 21.1 pg and the MCHC (9 h) was 34.2%. It also gave an MCV (9 h) of 61.5 fL, a Mono (9 h) of 2% and a Neu (9 h) of 15%. For the same compound, the PT (9 h) was 16 s, the Plat (9 h) was 120 x10_4/uL and the RBC (9 h) was 624.8 x10_4/ul. For the same compound, the Ret (9 h) was 8.6%, the WBC (9 h) was 84.5 x10_2/uL and the KIDNEY_L (9 h) was 0.9 g. The KIDNEY_R (9 h) was 0.9 g, the KIDNEY_TOTAL (9 h) was 1.8 g and the LIVER (9 h) was 8.8 g. It also gave an A/G (9 h) of 1.3, an ALP (9 h) of 1213.6 IU/L and an ALT (9 h) of 34 IU/L. It also gave an AST (9 h) of 72.6 IU/L, a BUN (9 h) of 12.6 mg/dL and a CRE (9 h) of 0.2 mg/dL. It also gave a Ca (9 h) of 10.4 mg/dL, a Cl (9 h) of 107 meq/L and a DBIL (9 h) of 0 mg/dL. The GLC (9 h) was 185.6 mg/dL, the IP (9 h) was 9.9 mg/dL and the K (9 h) was 4.2 meq/L. It also gave an LDH (9 h) of 230.8 IU/L, a Na (9 h) of 142 meq/L and a PL (9 h) of 139 mg/dL. It also gave an RALB (9 h) of 3 g/dL, a TBIL (9 h) of 0.022 mg/dL and a TC (9 h) of 75.8 mg/dL. It also gave a TG (9 h) of 60.8 mg/dL, a TP (9 h) of 5.4 g/dL and a gamma-GTP (9 h) of 1 IU/L. The TERMINAL_BW (24 h) was 214.7 g, the APTT (24 h) was 20.5 s and the Bas (24 h) was 0%. The Eos (24 h) was 0.8%, the Fbg (24 h) was 295.8 mg/dL and the Hb (24 h) was 13.4 g/dL. It also gave a Ht (24 h) of 38.7%, a Lym (24 h) of 83% and an MCH (24 h) of 21.5 pg. The MCHC (24 h) was 34.8%, the MCV (24 h) was 61.9 fL and the Mono (24 h) was 3%. It also gave a Neu (24 h) of 12.4%, a PT (24 h) of 16.3 s and a Plat (24 h) of 126.5 x10_4/uL. For the same compound, the RBC (24 h) was 626.2 x10_4/ul, the Ret (24 h) was 7.3% and the WBC (24 h) was 106.1 x10_2/uL. It also gave a KIDNEY_L (24 h) of 0.9 g, a KIDNEY_R (24 h) of 1 g and a KIDNEY_TOTAL (24 h) of 1.9 g. The LIVER (24 h) was 10 g, the A/G (24 h) was 1.3 and the ALP (24 h) was 1572.4 IU/L. For the same compound, the ALT (24 h) was 43 IU/L, the AST (24 h) was 74.4 IU/L and the BUN (24 h) was 18.8 mg/dL. For the same compound, the CRE (24 h) was 0.2 mg/dL, the Ca (24 h) was 10.8 mg/dL and the Cl (24 h) was 106.8 meq/L. For the same compound, the DBIL (24 h) was 0.008 mg/dL, the GLC (24 h) was 191.6 mg/dL and the IP (24 h) was 7.3 mg/dL. The K (24 h) was 4.6 meq/L, the LDH (24 h) was 300.2 IU/L and the Na (24 h) was 141.4 meq/L. For the same compound, the PL (24 h) was 154.2 mg/dL, the RALB (24 h) was 3.1 g/dL and the TBIL (24 h) was 0.032 mg/dL. For the same compound, the TC (24 h) was 79.8 mg/dL, the TG (24 h) was 103 mg/dL and the TP (24 h) was 5.4 g/dL. For the same compound, the gamma-GTP (24 h) was 1 IU/L.
